We go through two compounds from patent US6903104B2, “Indol-3-YL-2-oxoacetamide compounds and methods of use thereof” (National Health Research Institutes, priority 2001, dated 2005).

Test [1] relates to prostate PC3 cancer cells. As to the kind of experiment: In vitro cytotoxicity MTS assay, prostate PC3. The following applies: 72 hours. Type of test: cell-based, human. As to the method: (§1) A panel of human cancer cells, gastric NUGC3 and HR, nasopharyngeal HONE1, hepatocellular HEP G2 and HA-22T, colorectal DLD1, lung A549, prostate PC3, breast MCF7 and its adriamycin-resistant MCF7/ADR subline, uterus MES-SA and its adriamycin-resistant MES-SA/Dx5 subline, is purchased from Food Industry Research and Development Institute, Hsinchu, Taiwan R.O.C. or American Type Culture Collection, Manassas, Va. U.S.A., are used in in vitro cytotoxicity assays. The human cells are seeded at a cell density of 3000 or 4500 cells/100 μl/well in 96-well flat-bottom plates and incubated for 24 hours at 37° C. in a 5% CO2 incubator. The testing compounds are dissolved in dimethyl sulfoxide (DMSO) and further diluted into the culture medium for treatments of human cancer cells in vitro. The drug-containing media has a final DMSO concentration of ≦0.3%. The compounds of this invention are prepared in culture media for testing at a range of concentrations from 10, 1, 0.1, 0.01 to 0.001 μM. Each compound solution is (200 μl/well in duplicate) in the cell plates and is treated for 72 hours at 37° C., 5% CO2 in an incubator. Actinomycin D at 5 μM and 0.3% DMSO are used as the positive and vehicle controls, respectively. A colorimetric assay using 3-(4,5-dimethylthiazol-2-yl)-5-(3-carboxymethoxyphenyl)-2-(4-sulfophenyl)-2H-tetrazolium (MTS) and phenazine methosulfate (PMS) is used to determine the potency of the compounds. This assay measures cell viability based on the cellular activity in conversion of a tetrazolium salt into a colored soluble formazan product. The optical density (OD) values are measured at 490 nm with a 1420 multilabel counter VICTOR® from Wallac, Turku, Finland. All of the measured values are subtracted with that of the blank control wells without cells before further calculations. The efficacy data are expressed as a percentage normalized to the vehicle controls as calculated in the following formulae. Inhibitory potency (% of vehicle control)=[(OD490compound−OD490blank)/(OD490vehicle−OD490blank)]×100%. The concentration (IC50) of a test compound that inhibits 50% of the cellular activity is determined.

The next test has as its system breast MCF7 cancer cells. As to the kind of experiment: In vitro cytotoxicity MTS assay, breast MCF7. Type of test: cell-based, human. The following applies: 72 hours. As to the method: as §1
In test [2] the test system is murine leukemic P388 cells. Description: In vivo anticancer activity, murine leukemic P388 model. To be noted: P388-inoculated mice; for increase of life span: P.O., daily, 4×; for activity in the increase of life span (dose-response): oral. Details: species or system DBA/2J mice. As to the method:
The in vivo anticancer activities of the compounds are evaluated by the following murine leukemic P388 model. Inbred female DBA/2J mice of 4-5 week-old were purchased from the Charles River Laboratories Inc., Wilmington, Mass., USA and the National Laboratory Animals Breeding and Research Center, Taipei, Taiwan, ROC. Murine leukemic P388 cells are purchased from the Japanese Collection of Research Bioresources, Japan. P388 cells are cultured and propagated in RPMI1640 medium supplemented with 50 μM 2-mercaptoethanol and 10% fetal bovine serum. Mice at the age of 6 weeks were grouped as the treatment, negative control and positive control groups at 7 to 8 mice per group. All mice are intravenously inoculated with the P388 cells at one million per mouse one day before the treatments initiated. Compounds of this invention are dissolved in dimethyl sulfoxide (DMSO) and then diluted in 0.5% carboxymethyl cellulose with the final concentration of DMSO less than 0.5%. Different treatment groups are orally given (P.O.), respectively, with compounds of different doses for a pharmacological dose-response relationship. Mice of the negative control group are treated with the dosing vehicle, 0.5% carboxymethyl cellulose. Doxorubicin of the maximal tolerated dose, 10 mg/kg, is given intravenously as an experimental positive control. The cancer cell-inoculated animals are monitored twice daily. The time on which 50% of the P388-inoculated mice is still surviving is defined as the medium survival time and is used to calculate the percentage (normalized to the medium survival time of the control group) of increased in life span after treatment, which is then served as the index of treatment response.

For test [3], the system named is uterus MES-SA cancer cells. Description: In vitro cytotoxicity MTS assay, uterus MES-SA. Type of test: cell-based, human. The following applies: 72 hours. As to the method: as §1
The next test has as its system gastric HR cancer cells. Description: In vitro cytotoxicity MTS assay, gastric HR. Type of test: cell-based, human. The following applies: 72 hours. As to the method: as §1
Test [4] deals with adriamycin-resistant MCF7/ADR subline. As to the kind of experiment: In vitro cytotoxicity MTS assay, adriamycin-resistant MCF7/ADR. Type of test: cell-based, human. To be noted: 72 hours. As to the method:
as §1

Structures are written as SMILES. pIC50: −log10 of the molar value.

Turning to `Cc1cc(Cn2cc(C(=O)C(=O)Nc3cc(C)ns3)c3ccccc32)on1` [Compound 56], the pIC50 was 6.20 in test [1]; 7.44 in the test on breast MCF7 cancer cells; 6.53 in test [3]; 8.10 with gastric HR cancer cells; 5.30 in test [4]. In addition, the “increase of life span” value in test [2] (25 mg/kg) was 26 ± 27%; in test [2] (50 mg/kg) it was 57 ± 20%; in test [2] (100 mg/kg), 63 ± 17%; in test [2] (200 mg/kg), 100 ± 21%. Further, the “activity in the increase of life span (dose-response)” value in test [2] was “dose-dependent activity”.

For `Cc1cc(NC(=O)C(=O)c2cn(Cc3ccc(C#N)cc3)c3ccccc23)sn1` [Compound 25], the negative logarithm of the IC50 (pIC50) in test [1] was 6.16; with breast MCF7 cancer cells, 6.33; in test [3], 6.43; with gastric HR cancer cells it was 6.47; in test [4], 5.28. Further, the “increase of life span” value came to 14 ± 1% in test [2] (25 mg/kg), 27 ± 3% in test [2] (50 mg/kg), 20 ± 8% in test [2] (100 mg/kg) and 46 ± 24% in test [2] (200 mg/kg). Further, the “activity in the increase of life span (dose-response)” value in test [2] is listed as “dose-dependent activity”.
